From patent publication US20250172543A1, “HIGH DENSITY 3D HEPATOCYTE SPHEROID PLATFORM FOR DRUG ADME STUDIES” (Discovery Life Sciences, LLC, priority 2018, published 2025)
Like-named read-outs stand apart in the source and are kept apart here.

Assays:
[1] = test system: PHHs grown in suspension format; settings: human
[2] = test system: 3D primary human hepatocyte (PHH) high density spheroids; test: 3D PHH high density spheroid drug clearance assay; type: in vitro ADME; settings: 0.1 μM substrate, 6-well spheroid insert, in vivo hepatic clearance predicted from in vitro Clint by well stirred model
Description: Plating PHHs onto 6-well high density spheroid insert (−700 microwells/insert): PHH were thawed as standard procedure and resuspended in WEM plating medium. PHH cells were counted and the cell density was adjusted to 0.35e6/ml using WEM plating medium. For plating PHHs, the pipet aid was set at low disperse speed. Right before plating, a 5 mL pipet was used to remove most medium from pre-wetted inserts. Even cell suspensions were prepared by gently pipetting up and down. Using a 5 mL pipet, with the position the tip against the side wall at the bottom, 2 mL of cell suspension (700K cells, -1000 cells/microwell) was added to a 6-well spheroid insert. The plate was allowed to sit for 15-20 min in the hood. The plates were checked under a microscope with a 4x objective, to ensure that that a similar number of cells have settled into each microwell.
Half medium change with WME+medium: The pipet aid was at low disperse speed. Using a 5 mL pipet, 1 mL of old medium was slowly from each insert. A 1000 μL pipet tip was positioned against the top part of the insert sidewall, and 1 mL pre-warmed WME+medium was slowly added with the medium being allowed to flow down the sidewall. After waiting 5-10 minutes between each half medium change, the half medium change was repeated 3 more times. The PHHs were checked under a microscope for spheroid formation.
Incubate the candidate compound(s) to be tested for clearance with the cultured spheroids: The pipet aid was set at low disperse speed. Using a 5 mL pipet, 1 mL of old medium was slowly removed from each insert. […] After 5-10 minutes, the culture was placed back to 37° C. incubator. The timer for incubation was started at this point.
Sampling: 40 μL/well stop solutions Labetalol (0.2 uM IN 0.05% FA/50%ACN) was aliquoted in an assay plate and kept on ice. At the desired assay incubation time (0 hr, 1 hr, 2 hrs, 4 hrs, 6 hrs, 12 hrs, 24 hrs, 36 hrs, 48 hrs, 3 days, 4 days, 5 days, 6 days, 7 days, 8 days, 9 days, 10 days, 11 days, 12 days, 13 days 14 days, 3 weeks, 4 weeks, or any value or range there between), 40 μL sample were drawn from each incubation well, mixed well with stop solution, and stored at −80° C.
LC/MS analysis: The amount of the candidate compound was measured using liquid chromatography/mass spectrometry, as is known in the art.
Calculate the elimination rate constant (ke1): The percentage of the candidate compound remaining in the culture was calculated by dividing the mass spectrometry peak area ratio at certain incubation times to that at time zero, as is known in the art. The natural logarithm of the percentage of the remaining candidate compound was plotted against time, and the kelwas calculated as the absolute value from the slope.
Calculate the depletion half-lives of the candidate compounds: Once the kel was determined for the candidate compound, the depletion half-life of the candidate compound was determined by Equation 1, as is known in the art.
Calculate the;n vitro clearance (Clint) of the candidate compound: The in vitro clearance of the candidate compounds was calculated using the in vitro half-lives from Equation 1 using the scaling factors of Equation 2, as is known in the art.
Calculate predicted in vivo hepatic clearance (CLh): The in vivo hepatic clearance was calculated from the in vitro clearance determined by Equation 2 using the well stirred model Equation 3, as is known in the art.

[3] = actual in vivo clearance for comparison; cited from earlier work
[4] = test system: PHHs grown in suspension format; test: Clearance measurement with PHHs grown in suspension format; settings: FIGS. 8A-I

CCC1=C(C)CN(C(=O)NCCc2ccc(S(=O)(=O)NC(=O)N[C@H]3CC[C@H](C)CC3)cc2)C1=O [Glimepiride]
Measurability of clearance in suspension hepatocytes [1]: unable to measure
Predicted CLh, 3D HD Spheroids [2]: 0.04
In Vivo CLnonrenal [3]: 1.12

Cc1nnc2n1-c1ccc(Cl)cc1C(c1ccccc1)=NC2 [Alprazolam]
Predicted CLh, 3D HD Spheroids [2]: 0.45
Measurability of clearance in suspension hepatocytes [4]: unable to measure
In Vivo CLnonrenal [3]: 0.61

CC(=O)CC(c1ccccc1)c1c(O)c2ccccc2oc1=O (centres unmarked) [Warfarin]
Measurability of clearance in suspension hepatocytes [1]: unable to measure
Predicted CLh, 3D HD Spheroids [2]: 0.01

C[C@]12C=CC(=O)C=C1CC[C@@H]1[C@@H]2[C@@H](O)C[C@@]2(C)[C@H]1CC[C@]2(O)C(=O)CO [Prednisolone]
Measurability of clearance in suspension hepatocytes [1]: unable to measure
Predicted CLh, 3D HD Spheroids [2]: 0.60
In Vivo CLnonrenal [3]: 1.44

CN1C(=O)CN=C(c2ccccc2)c2cc(Cl)ccc21 [Diazepam]
In Vivo CLnonrenal [3]: 0.53

CCCCNC(=O)NS(=O)(=O)c1ccc(C)cc1 [Tolbutamide]
Measurability of clearance in suspension hepatocytes [1]: unable to measure
Predicted CLh, 3D HD Spheroids [2]: 0.22
